Measurements as given in patent US20130288956A1, “COMBINED PHARMACEUTICAL COMPOSITION AS ANTIFUNGAL AGENT” (priority 2010, published 2013).
Numbered stars: 1 amine (or outer) side, 2 acyl side, 3 side chain; on linkers, the order of the positions; unused ones are H or OH. Bridge positions count the residues as written; N and C are the ends. Square brackets hold non-standard residues; d marks the D form. Peptide text beside a SMILES is read from it. * marks the point of attachment. hTyr(3S-OH,4S-OH,3'-OSO3H) = N[C@H](C(=O)O)[C@H](O)[C@@H](O)c1ccc(O)c(OS(=O)(=O)O)c1; Orn(4R-OH,5R-OH) = O=C([C@H](C[C@@H](O)[C@@H](O)N[*:3])N[*:1])[*:2]; Pro(3S-OH,4S-Me) = C[C@H]1CN[C@H](C(=O)O)[C@H]1O; X1 = CCCCCOc1ccc(-c2cc(-c3ccc(C(=O)*)cc3)no2)cc1; Gln(3R-OH) = NC(=O)C[C@@H](O)[C@H](N)C(=O)O; Hyp = O=C(O)[C@@H]1C[C@@H](O)CN1

What was measured:
[1] = tested on: C. tropicalis; assay: In vitro combination effects, checkerboard method by micro dilution (FIC index); type: cell-based, Candida tropicalis; details: C. tropicalis (10 strains); combination use with Test Compound 1
Method: (§1) A clinically isolated strain retained by the Medical Mycology Research Center of Chiba University (Code No. IFM) and a clinically isolated strain retained by the Life Science Research Center of Gifu University (Code No. E) were used as Candida and Aspergillus strains.
(§2) Fungus liquid obtained by static culturing at 35° C. for 48 hours in Sabouraud Dextrose liquid medium (SDB, Becton, Dickinson and Co.) was diluted with RPMI 1640 medium (Nissui Pharmaceutical Co., Ltd.) containing 0.165 M 3-(N-morpholino)propanesulfonic acid (MOPS) to prepare a fungus liquid having a fungus concentration of 1×10^3 cells/mL to 2×10^3 cells/mL.
(§3) Test Compound 1 (0.0005 μg/mL to 1.56 μg/mL) in the horizontal rows (12 wells) of a 96-well flat-bottom plate, and an antifungal agent in the form of ravuconazole (0.0015 μg/mL to 6.25 μg/mL), fluconazole (0.008 μg/mL to 32 μg/mL), voriconazole (0.0002 μg/mL to 8 μg/mL), micafungin (0.0005 μg/mL to 0.25 μg/mL), caspofungin (0.0005 μg/mL to 1 μg/mL) or amphotericin B (0.008 μg/mL to 8 μg/mL) in the vertical rows (8 wells) of the flat-bottom plate were prepared by diluting so as to blend together using RPMI 1640 medium containing 0.165 M MOPS to obtain a control group, a single Test Compound 1 group, each one of antifungal agents groups and combination groups of Test Compound 1+each one of antifungal agents.
(§4) The fungus liquids prepared in (1) were inoculated into the wells of 96-well flat-bottom plate containing 20 μL/well to 75 μL/well of the diluted test drug liquids prepared in (2) at 80 μL/well to 125 μL/well, followed by aerobically static culturing for 25 hours to 48 hours at 35° C.
(§5) Combination effects of Test Compound 1 and the antifungal agents were measured with the checkerboard method by micro dilution.
(§6) Interaction between both drugs was assessed by calculating the FIC index using the calculation formula indicated below.
(§7) The FIC index was calculated for each combination of antifungal agent concentrations that inhibited fungal growth, and the minimum value of the resulting FIC index was used as a combination FIC index.
(§8) A combination FIC index of 0.5 or less was evaluated as indicating synergistic action, that of 0.5 to 1 or less was evaluated as indicating additive action, and that of 1 to 4 or less was evaluated as indicating indifferent action.
(§9) FIC Index=(MIC value of drug A during combination use/MIC value of drug A when used alone)+(MIC value of drug B during combination use/MIC value of drug B when used alone) (Calculation Formula)

[2] = tested on: A. flavus; assay: as above; type: cell-based, Aspergillus flavus; details: A. flavus (4 strains), Table 1
Method: as §1
(§10) An Aspergillus strain stored frozen at −80° C., or spores obtained by static culturing at 35° C. for 1 week in Potato Dextrose agar medium (PDA, Eiken Chemical Co., Ltd.) followed by scraping from the container with a metal loop, was diluted with RPMI 1640 medium containing 0.165 M MOPS to prepare a fungus liquid having a fungus concentration of 0.75×10^4 cells/mL to 1.33×10^4 cells/mL.
as §3, §4, §5, §6, §7, §8, §9

[3] = tested on: A. fumigatus; assay: as above; type: cell-based, Aspergillus fumigatus; details: A. fumigatus (18 strains)
Method: as §1, §10, §3, §4, §5, §6, §7, §8, §9

[4] = tested on: A. flavus strain IFM50915; assay: A. flavus respiratory tract infection model; type: in vivo, mice
Method: (§11) Female DBA/2N mice (age 8 weeks, Charles River Laboratories Japan, Inc.) were subcutaneously administered 200 mg/kg of 5-fluorouracil 5 or 6 days prior to infection in order to put the mice into a compromised state.
(§12) A. fumigatus strain IFM52108 and A. flavus strain IFM50915 were used.
A liquid containing spores of A. flavus strain IFM50915 stored at −80° C. was thawed, and the number of spores was counted using a hemocytometer followed by diluting with sterile physiological saline containing 0.05% Tween 80 to a concentration of 0.6×10^6 cells/mL to 1.0×10^6 cells/mL to obtain an inoculation fungus liquid.
(§13) 50 μl of inoculation fungus liquid were inoculated into the nasal cavities of 9-week-old mice at 0.3×10^5 cells/mouse to 1.25×10^5 cells/mouse under Ketalar anesthesia.
(§14) 0.1 mL to 0.2 mL of each drug solution (dissolved in sterile physiological saline or 5% glucose solution, or dissolved in sterile physiological saline or 5% glucose solution containing 6.5% dimethylsulfoxide and 3.5% Tween 80) was administered to the individual and combination dose groups either into the peritoneal cavity or into the stomach using a gastric cannula corresponding to the administration route of the drug for 3 to 4 days at the rate of 1 to 2 times per day starting 0.5 hours to 1 hour after inoculation of fungus.
(§15) There were 5 to 9 animals in each group.
(§16) Infection protection results were assessed on survival rate 14 days after infection.

[5] = tested on: C. glabrata; assay: In vitro combination effects, checkerboard method by micro dilution (FIC index); type: cell-based, Candida glabrata; details: C. glabrata (10 strains); combination use with Test Compound 1
Method: as §1, §2, §3, §4, §5, §6, §7, §8, §9

[6] = tested on: C. albicans; assay: as above; type: cell-based, Candida albicans; details: C. albicans (20 strains); combination use with Test Compound 1
Method: as §1, §2, §3, §4, §5, §6, §7, §8, §9

[7] = tested on: A. fumigatus strain IFM52108; assay: A. fumigatus respiratory tract infection model; type: in vivo, mice; details: for Combination effects in mouse Aspergillus fumigatus infection model: combination with the test compound of the invention
Method: as §11, §12
A liquid containing spores of A. fumigatus strain IFM52108 stored at −80° C. was applied to Potato Dextrose agar medium (PDA, Eiken Chemical Co., Ltd.) followed by static culturing for 5 to 7 days at 35° C. and suspending in sterile physiological saline containing 0.05% Tween 80.
The number of spores was counted using a hemocytometer, and the liquid was diluted with sterile physiological saline containing 0.05% Tween 80 to a concentration of 1.2×10^6 cells/mL to 2.5×10^6 cells/mL to obtain an inoculation fungus liquid.
as §13, §14, §15, §16

Compound | Ratio indicating Additive effect of combination use with Test Compound 1 [1] [%] | Ratio indicating Antagonistic effect of combination use with Test Compound 1 [1] [%] | Ratio indicating Indifferent effect of combination use with Test Compound 1 [1] [%] | Ratio indicating Synergistic effect of combination use with Test Compound 1 [1] [%] | Ratio indicating Additive effect of combination use with Test Compound 1 [2] [%] | Ratio indicating Antagonistic effect of combination use with Test Compound 1 [2] [%] | Ratio indicating Indifferent effect of combination use with Test Compound 1 [2] [%] | Ratio indicating Synergistic effect of combination use with Test Compound 1 [2] [%] | Ratio indicating Additive effect of combination use with Test Compound 1 [3] [%] | Ratio indicating Antagonistic effect of combination use with Test Compound 1 [3] [%] | Ratio indicating Indifferent effect of combination use with Test Compound 1 [3] [%] | Ratio indicating Synergistic effect of combination use with Test Compound 1 [3] [%] | Ratio indicating Additive effect of combination use with Test Compound 1 [5] [%] | Ratio indicating Antagonistic effect of combination use with Test Compound 1 [5] [%] | Ratio indicating Indifferent effect of combination use with Test Compound 1 [5] [%] | Ratio indicating Synergistic effect of combination use with Test Compound 1 [5] [%] | Ratio indicating Additive effect of combination use with Test Compound 1 [6] [%] | Ratio indicating Antagonistic effect of combination use with Test Compound 1 [6] [%] | Ratio indicating Indifferent effect of combination use with Test Compound 1 [6] [%] | Ratio indicating Synergistic effect of combination use with Test Compound 1 [6] [%] | further results
CCCCCOc1ccc(-c2cc(-c3ccc(C(=O)N[C@H]4C[C@@H](O)[C@@H](O)NC(=O)[C@@H]5[C@@H](O)[C@@H](C)CN5C(=O)[C@H]([C@H](O)CC(N)=O)NC(=O)[C@H]([C@H](O)[C@@H](O)c5ccc(O)c(OS(=O)(=O)O)c5)NC(=O)[C@@H]5C[C@@H](O)CN5C(=O)[C@H]([C@@H](C)O)NC4=O)cc3)no2)cc1 [Micafungin, micafungin] (X1-[Orn(4R-OH,5R-OH)]T[Hyp][hTyr(3S-OH,4S-OH,3'-OSO3H)][Gln(3R-OH)][Pro(3S-OH,4S-Me)]; lactam 1-C) | 100 | 0 | 0 | 0 | 0 | 0 | 0 | 100 | 0 | 0 | 0 | 100 | 70 | 0 | 30 | 0 | 80 | 0 | 20 | 0 | 14-day survival rate ([4]; MCFG 0.25 mg/kg, Table 5): 0%; 14-day survival rate ([4]; MCFG 0.5 mg/kg, Table 4): 50%; 14-day survival rate ([4]; MCFG 0.5 mg/kg, Table 5): 33.3%; Combined effects in mouse Aspergillus flavus infection model ([4]; combination with the test compound of the invention): synergistic combined effects; 14-day survival rate ([7]; MCFG 1 mg/kg): 0%; 14-day survival rate ([7]; MCFG 2 mg/kg): 40%; Combination effects in mouse Aspergillus fumigatus infection model [7]: synergistic combination effects
Nc1ncccc1-c1cc(Cc2ccc(COc3ccccn3)cc2)no1 [Test Compound 1, 3-(3-(4-(pyridin-2-yloxymethyl)-benzyl)-isoxazol-5-yl)-pyridin-2-ylamine] | – | – | – | – | – | – | – | – | – | – | – | – | – | – | – | – | – | – | – | – | 14-day survival rate ([4]; Test Compound 1 5 mg/kg, Table 4 AMPH experiment): 20%; 14-day survival rate ([4]; Test Compound 1 5 mg/kg, Table 4 MCFG experiment): 12.5%; 14-day survival rate ([4]; Test Compound 1 5 mg/kg, Table 4 RVCZ experiment): 20%; 14-day survival rate ([4]; Test Compound 1 8 mg/kg, Table 4 CSFG experiment): 0%; 14-day survival rate ([4]; Test Compound 1 10 mg/kg, Table 4 AMPH experiment): 60%; 14-day survival rate ([4]; Test Compound 1 10 mg/kg, Table 4 RVCZ experiment): 60%; 14-day survival rate ([4]; Test Compound 1 16 mg/kg, Table 4 CSFG experiment): 80%; 14-day survival rate ([7]; Test Compound 1 10 mg/kg, Table 3 MCFG experiment): 0%; 14-day survival rate ([7]; Test Compound 1 10 mg/kg, Table 3 RVCZ experiment): 0%; 14-day survival rate ([7]; Test Compound 1 10 mg/kg, Table 3 VRCZ experiment): 40%; 14-day survival rate ([7]; Test Compound 1 20 mg/kg, Table 3 MCFG experiment): 20%; 14-day survival rate ([7]; Test Compound 1 20 mg/kg, Table 3 RVCZ experiment): 20%; 14-day survival rate ([7]; Test Compound 1 20 mg/kg, Table 3 VRCZ experiment): 40%
C[C@@H](c1ncncc1F)[C@](O)(Cn1cncn1)c1ccc(F)cc1F [Voriconazole, voriconazole] | 0 | 0 | 0 | 100 | 50 | 0 | 50 | 0 | 28 | 0 | 67 | 6 | 60 | 0 | 10 | 30 | 75 | 0 | 10 | 15 | 14-day survival rate ([7]; VRCZ 1 mg/kg): 0%; 14-day survival rate ([7]; VRCZ 2 mg/kg): 20%; Combination effects in mouse Aspergillus fumigatus infection model [7]: synergistic combination effects
